28 molecules from patent publication EP3782997A1, “FUSED PYRIMIDINE COMPOUNDS AND PHARMACEUTICAL COMPOSITIONS THEREOF FOR THE TREATMENT OF FIBROTIC DISEASES” (Galapagos N.V., priority 2019, dated 2021) can be followed below.

Molecules are shown by their SMILES.

The experiment addresses hENPP2 (Homo sapiens, UniProt Q13822). The experiment is described as follows: Human ENPP2 (hENPP2) biochemical assay using LPC as substrate. The following applies: 150 µM LPC (palmitoyl 16:0), 37°C for 30 min. The method in brief:
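Enzyme at 1 or 3 µg/mL final in Tris-HCl pH 8.5, NaCl, KCl, CaCl2, fatty-acid-free BSA; reaction started with 150 µM LPC 16:0 (as added), 30 min at 37°C. Released choline developed with choline oxidase/peroxidase/TOOS/4-aminoantipyrine plus EGTA stop, read at 555 nm after 30 min; 1/3 dilutions from 50 µM give IC50.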
For `Cc1cc(C)cc(Nc2ncc3c(n2)CN(C2CC4CC2CN4C(=O)c2ccc4[nH]c(=O)oc4c2)C3)c1` (stereo not shown) [compound 64, 6-[5-[2-(3,5-dimethylanilino)-5,7-dihydropyrrolo[3,4-d]pyrimidin-6-yl]-2-azabicyclo[2.2.1]heptane-2-carbonyl]-3H-1,3-benzoxazol-2-one], the 50% inhibitory concentration (IC50) was > 1000 nM.

`Cc1cc(C)cc(Nc2ncc3c(n2)CN(C2CCN(C(=O)c4cnc5[nH]nnc5c4)CC2C)C3)c1` (stereo not shown) [compound 65, [4-[2-(3,5-dimethylanilino)-5,7-dihydropyrrolo[3,4-d]pyrimidin-6-yl]-3-methyl-1-piperidyl]-(3H-triazolo[4,5-b]pyridin-6-yl)methanone] showed an IC50 of 100 to 500 nM. The value for `Cc1cc(C)cc(Nc2ncc3c(n2)CN(C2CC(C)N(C(=O)c4ccc5[nH]nnc5c4)C(C)C2)C3)c1` (stereo not shown) [compound 68, 1H-benzotriazol-5-yl-[4-[2-(3,5-dimethylanilino)-5,7-dihydropyrrolo[3,4-d]pyrimidin-6-yl]-2,6-dimethyl-1-piperidyl]methanone] was > 1000 nM; that for `Cc1cc(C)cc(Nc2ncc3c(n2)CN(C2CCN(C(=O)c4ccc5[nH]c(=O)sc5c4)CC2)C3)c1` [compound 69, 6-[4-[2-(3,5-dimethylanilino)-5,7-dihydropyrrolo[3,4-d]pyrimidin-6-yl]piperidine-1-carbonyl]-3H-1,3-benzothiazol-2-one] was 0.01 to 100 nM. The value for `Cc1cc(C)cc(Nc2ncc3c(n2)CN(C2CN(C(=O)c4ccc5[nH]c(=O)sc5c4)C2)C3)c1` [compound 70, 6-[3-[2-(3,5-dimethylanilino)-5,7-dihydropyrrolo[3,4-d]pyrimidin-6-yl]azetidine-1-carbonyl]-3H-1,3-benzothiazol-2-one] was 0.01 to 100 nM. The value for `Cc1cc(C)cc(Nc2ncc3c(n2)CN(C2CCN(C(=O)c4ccc(NS(C)(=O)=O)cc4)CC2)C3)c1` [compound 72, N-[4-[4-[2-(3,5-dimethylanilino)-5,7-dihydropyrrolo[3,4-d]pyrimidin-6-yl]piperidine-1-carbonyl]phenyl]methanesulfonamide] was > 1000 nM; that for `Cc1cc(C)cc(Nc2ncc3c(n2)CN([C@@H]2CCN(C(=O)c4ccc5[nH]nnc5c4)[C@H](C)C2)C3)c1` [compound 73, 1H-benzotriazol-5-yl-[(2R,4R)-4-[2-(3,5-dimethylanilino)-5,7-dihydropyrrolo[3,4-d]pyrimidin-6-yl]-2-methyl-1-piperidyl]methanone] was 0.01 to 100 nM. On to `Cc1cc(C)cc(Nc2ncc3c(n2)CN([C@H]2CCN(C(=O)c4ccc5[nH]nnc5c4)[C@@H](C)C2)C3)c1` [compound 74, 1H-benzotriazol-5-yl-[(2S,4S)-4-[2-(3,5-dimethylanilino)-5,7-dihydropyrrolo[3,4-d]pyrimidin-6-yl]-2-methyl-1-piperidyl]methanone], for which the IC50 was 0.01 to 100 nM. As for `Cc1cc(C)cc(Nc2ncc3c(n2)CCCN(C2CCN(C(=O)c4ccc5nn[nH]c5c4)CC2)C3)c1` [compound 75, 3H-benzotriazol-5-yl-[4-[2-(3,5-dimethylanilino)-5,7,8,9-tetrahydropyrimido[5,4-c]azepin-6-yl]-1-piperidyl]methanone], the 50% inhibitory concentration (IC50) was > 1000 nM.

`Cc1cc(C)cc(Nc2ncc3c(n2)CN(C2CN(C(=O)c4ccc5nn[nH]c5c4)CC2C)C3)c1` (stereo not shown) [compound 77, 3H-benzotriazol-5-yl-[3-[2-(3,5-dimethylanilino)-5,7-dihydropyrrolo[3,4-d]pyrimidin-6-yl]-4-methyl-pyrrolidin-1-yl]methanone]: the concentration for half-maximal inhibition (IC50) lay in the range of 100 to 500 nM.

In turn, `Cc1cc(C)cc(Nc2ncc3c(n2)CN(C2[C@@H]4C[C@H]2CN(C(=O)c2ccc5[nH]nnc5c2)C4)C3)c1` (stereo partly drawn) [compound 78, 1H-benzotriazol-5-yl-[(1R,5S)-6-[2-(3,5-dimethylanilino)-5,7-dihydropyrrolo[3,4-d]pyrimidin-6-yl]-3-azabicyclo[3.1.1]heptan-3-yl]methanone] gave an IC50 of 0.01 to 100 nM. The figure for `Cc1cc(C)cc(Nc2ncc3c(n2)CN(C2CCN(C(=O)c4cc5[nH]nnc5cc4F)CC2)C3)c1` [compound 79, [4-[2-(3,5-dimethylanilino)-5,7-dihydropyrrolo[3,4-d]pyrimidin-6-yl]-1-piperidyl]-(6-fluoro-3H-benzotriazol-5-yl)methanone] is 0.01 to 100 nM.

Regarding `Cc1cc(C)cc(Nc2ncc3c(n2)CN(C2CN(C(=O)c4cc5[nH]nnc5cc4F)C2)C3)c1` [compound 80, [3-[2-(3,5-dimethylanilino)-5,7-dihydropyrrolo[3,4-d]pyrimidin-6-yl]azetidin-1-yl]-(6-fluoro-3H-benzotriazol-5-yl)methanone], the IC50 was 0.01 to 100 nM. The figure for `COc1cc2[nH]nnc2cc1C(=O)N1CC(N2Cc3cnc(Nc4cc(C)cc(C)c4)nc3C2)C1` [compound 81, [3-[2-(3,5-dimethylanilino)-5,7-dihydropyrrolo[3,4-d]pyrimidin-6-yl]azetidin-1-yl]-(6-methoxy-1H-benzotriazol-5-yl)methanone] is 0.01 to 100 nM; for `Cc1cc(C)cc(Nc2ncc3c(n2)CN(C2CN(C(=O)c4cc5nn[nH]c5cc4F)CC2C)C3)c1` (stereo not shown) [compound 82, [3-[2-(3,5-dimethylanilino)-5,7-dihydropyrrolo[3,4-d]pyrimidin-6-yl]-4-methyl-pyrrolidin-1-yl]-(6-fluoro-1H-benzotriazol-5-yl)methanone] it is 100 to 500 nM; for `COc1cc2[nH]nnc2cc1C(=O)N1CC(C)C(N2Cc3cnc(Nc4cc(C)cc(C)c4)nc3C2)C1` (stereo not shown) [compound 83, [3-[2-(3,5-dimethylanilino)-5,7-dihydropyrrolo[3,4-d]pyrimidin-6-yl] -4-methyl-pyrrolidin-1-yl]-(6-methoxy-1H-benzotriazol-5-yl)methanone] it is 100 to 500 nM. The value for `Cc1cc(C)cc(Nc2ncc3c(n2)CN(C2=C(C#N)CN(C(=O)c4ccc5nn[nH]c5c4)C2)C3)c1` [compound 85, 1-(3H-benzotriazole-5-carbonyl)-4-[2-(3,5-dimethylanilino)-5,7-dihydropyrrolo[3,4-d]pyrimidin-6-yl]-2,5-dihydropyrrole-3-carbonitrile] was 100 to 500 nM. The value for `Cc1cc(C)cc(Nc2ncc3c(n2)CCN(C2CN(C(=O)c4ccc5nn[nH]c5c4)CC2C)C3)c1` (stereo not shown) [compound 87, 3H -benzotriazol-5-yl-[3-[2-(3,5-dimethylanilino)-7,8-dihydro-5H-pyrido[4,3-d]pyrimidin-6-yl] -4-methyl-pyrrolidin-1-yl]methanone] was 0.01 to 100 nM; that for `COc1cc2[nH]nnc2cc1C(=O)N1CC(C)C(N2CCc3nc(Nc4cc(C)cc(C)c4)ncc3C2)C1` (stereo not shown) [compound 88, [3-[2-(3,5-dimethylanilino)-7,8-dihydro-5H-pyrido[4,3-d]pyrimidin-6-yl]-4-methyl-pyrrolidin-1-yl]-(6-methoxy-1H-benzotriazol-5-yl)methanone] was 0.01 to 100 nM; that for `Cc1cc(C)cc(Nc2ncc3c(n2)CN([C@H]2CCN(C(=O)c4ccc5[nH]nnc5c4)[C@H](C)C2)C3)c1` [compound 92, 1H-benzotriazol-5-yl-[(2R,4S)-4-[2-(3,5-dimethylanilino)-5,7-dihydropyrrolo[3,4-d]pyrimidin-6-yl]-2-methyl-1-piperidyl]methanone] was 0.01 to 100 nM. Consider `Cc1cc(C)cc(Nc2ncc3c(n2)CN([C@@H]2CCN(C(=O)c4ccc5[nH]nnc5c4)[C@@H](C)C2)C3)c1` [compound 93, 1H-benzotriazol-5-yl-[(2S,4R)-4-[2-(3,5-dimethylanilino)-5,7-dihydropyrrolo[3,4-d]pyrimidin-6-yl]-2-methyl-1-piperidyl]methanone], for which the IC50 lay in the range of 0.01 to 100 nM.

As for `Cc1cc(C)cc(Nc2ncc3c(n2)CCCN(C2CN(C(=O)c4ccc5[nH]nnc5c4)C2)C3)c1` [compound 94, 1H-benzotriazol-5-yl-[3-[2-(3,5-dimethylanilino)-5,7,8,9-tetrahydropyrimido[5,4-c]azepin-6-yl]azetidin-1-yl]methanone], the half-inhibitory concentration (IC50) was > 1000 nM. The figure for `Cc1cc(C)cc(Nc2ncc3c(n2)C(C)(C)N(C2CN(C(=O)c4ccc5[nH]nnc5c4)C2)C3)c1` [compound 95, 1H-benzotriazol-5-yl-[3-[2-(3,5-dimethylanilino)-7,7-dimethyl-5H-pyrrolo[3,4-d]pyrimidin-6-yl]azetidin-1-yl]methanone] is 0.01 to 100 nM. The value for `Cc1cc(C)cc(Nc2ncc3c(n2)CCN([C@@H]2CCN(C(=O)c4ccc5[nH]nnc5c4)[C@H](C)C2)C3)c1` [compound 98, 1H-benzotriazol-5-yl-[(2R,4R)-4-[2-(3,5-dimethylanilino)-7,8-dihydro-5H-pyrido[4,3-d]pyrimidin-6-yl]-2-methyl-1-piperidyl]methanone] was 100 to 500 nM; that for `COc1cc2[nH]nnc2cc1C(=O)N1CC[C@@H](N2Cc3cnc(Nc4cc(C)cc(C)c4)nc3C2)C[C@H]1C` [compound 105, [(2R,4R)-4-[2-(3,5-dimethylanilino)-5,7-dihydropyrrolo[3,4-d]pyrimidin-6-yl]-2-methyl-1-piperidyl]-(6-methoxy-1H-benzotriazol-5-yl)methanone] was 0.01 to 100 nM; that for `COc1cc2[nH]nnc2cc1C(=O)N1CCC(N2Cc3cnc(Nc4cc(C)cc(C)c4)nc3C2)CC1` [compound 106, [4-[2-(3,5-dimethylanilino)-5,7-dihydropyrrolo[3,4-d]pyrimidin-6-yl]-1-piperidyl]-(6-methoxy-1H-benzotriazol-5-yl)methanone] was 0.01 to 100 nM. Molecule `Cc1cc(C)cc(Nc2ncc3c(n2)CN(C2CCN(C(=O)c4ccc5[nH]nnc5c4)C(C(F)(F)F)C2)C3)c1` (stereo not shown) [compound 107, 1H-benzotriazol-5-yl-[4-[2-(3,5-dimethylanilino)-5,7-dihydropyrrolo[3,4-d]pyrimidin-6-yl]-2-(trifluoromethyl)-1-piperidyl]methanone] gave a concentration for half-maximal inhibition (IC50) of 0.01 to 100 nM. Molecule `Cc1cc(C)cc(Nc2ncc3c(n2)CCN(C2CCN(C(=O)c4ccc5[nH]nnc5c4)CC2)CC3)c1` [compound 109, 1H-benzotriazol-5-yl-[4-[2-(3,5-dimethylanilino)-5,6,8,9-tetrahydropyrimido[4,5-d]azepin-7-yl]-1-piperidyl]methanone] yielded an IC50 of 0.01 to 100 nM.

What is called IC50 is the concentration needed to halve the response being measured. A higher IC50 goes with a need for much substance.
